Among the data in US8829034B2, “Compounds which modulate the CB2 receptor” (Boehringer Ingerlheim International GmbH, priority 2006, dated 2014) are EC50 and agonistic activity values, retold here.

The target in the test is T1, human CB2R (Homo sapiens, UniProt P34972).
T1 construct: host or cells: CHO cells
Briefly: CB2R mediated modulation of cAMP synthesis. In kind it is cell-based. Particulars: for agonistic activity: found through the use of the above described assays. The protocol: B. CB2R Mediated Modulation of cAMP Synthesis:
CHO cells expressing human CB2R (Euroscreen) were plated at a density of 5000 cells per well in 384 well plates and incubated overnight at 37° C. After removing the media, the cells were treated with test compounds diluted in stimulation buffer containing 1 mM IBMX, 0.25% BSA and 10 uM Forskolin. The assay was incubated for 30 minutes at 37° C. Cells were lysed and the cAMP concentration was measured using DiscoverX-XS cAMP kit, following the manufacturer's protocol. In this setting, agonists will decrease forskolin induced production of cAMP while inverse agonists will further increase forskolin induced production of cAMP. EC50 of agonists were calculated as follows. The maximal amount of cAMP produced by forskolin compared to the level of cAMP inhibited by 1 uM CP55940 is defined as 100%. The EC50 value of each test compound was determined as the concentration at which 50% of the forskolin-stimulated cAMP synthesis was inhibited. Data was analyzed using a four-parameter logistic model. (Model 205 of XLfit 4.0).

Like-named read-outs stand apart in the source and are kept apart here.

T1 sequence (P34972 whole entry): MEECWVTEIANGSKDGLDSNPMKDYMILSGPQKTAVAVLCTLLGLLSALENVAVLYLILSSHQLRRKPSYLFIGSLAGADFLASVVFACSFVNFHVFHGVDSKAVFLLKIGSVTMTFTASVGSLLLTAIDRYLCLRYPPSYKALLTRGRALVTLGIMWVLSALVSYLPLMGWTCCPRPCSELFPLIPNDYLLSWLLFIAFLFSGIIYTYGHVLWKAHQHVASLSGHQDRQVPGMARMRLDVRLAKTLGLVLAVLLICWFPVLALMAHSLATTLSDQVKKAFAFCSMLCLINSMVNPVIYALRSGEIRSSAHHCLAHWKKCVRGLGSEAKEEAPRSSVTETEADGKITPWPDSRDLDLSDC

In the case of `CCCS(=O)(=O)C(C)(C)C(=O)Nc1ccc(C(C)(C)C)cc1` [N-(4-tert-Butyl-phenyl)-2-methyl-2-(propane-1-sulfonyl)-propionamide], the EC50 worked out at 12.3 nM and the agonistic activity result is given as “agonistic activity”.
In the case of `CC(C)S(=O)(=O)C(C)(C)C(=O)Nc1ccc(C(C)(C)C)cc1` [N-(4-tert-Butyl-phenyl)-2-methyl-2-(propane-2-sulfonyl)-propionamide], the agonistic activity entry is “agonistic activity”.
Same read-out and setting: the value for `CCCS(=O)(=O)C(C)(C)C(=O)Nc1cc(-c2ccccc2)nn1C` [2-Methyl-N-(2-methyl-5-phenyl-2H-pyrazol-3-yl)-2-(propane-1-sulfonyl)-propionamide] was “agonistic activity”; that for `CC(C)S(=O)(=O)C(C)(C)C(=O)Nc1ccc2ccccc2n1` [2-Methyl-2-(propane-2-sulfonyl)-N-quinolin-2-yl-propionamide] was “agonistic activity”.
As to `CC(=O)N1CCCC(CS(=O)(=O)C(C)(C)C(=O)Nc2cc(C(C)(C)C)on2)C1` (centres unmarked) [2-(1-Acetyl-piperidin-3-ylmethanesulfonyl)-N-(5-tert-butyl-isoxazol-3-yl)-2-methyl-propionamide], the agonistic activity result was “agonistic activity”.
Still for that read-out and setting: the result for `Cn1nc(-c2ccccc2)cc1NC(=O)C(C)(C)S(=O)(=O)C1CCCC1` [2-Cyclopentanesulfonyl-2-methyl-N-(2-methyl-5-phenyl-2H-pyrazol-3-yl)-propionamide] reads “agonistic activity”.
`Cn1nc(C(C)(C)C)cc1NC(=O)C(C)(C)S(=O)(=O)CC1CCOCC1` [N-(5-tert-Butyl-2-methyl-2H-pyrazol-3-yl)-2-methyl-2-(tetrahydro-pyran-4-ylmethanesulfonyl)-propionamide]: the agonistic activity entry is given as “agonistic activity”.
For the compound `CC(C)(C(=O)Nc1nc2ccccc2s1)S(=O)(=O)CC1CCOCC1` [N-Benzothiazol-2-yl-2-methyl-2-(tetrahydro-pyran-4-ylmethanesulfonyl)-propionamide], a half-maximal response (EC50) required 27.9 nM and the agonistic activity result was “agonistic activity”.
For `CCC(C)S(=O)(=O)C(C)(C)C(=O)Nc1ccc(C(F)(F)F)cn1` (centres unmarked) [2-(Butane-2-sulfonyl)-2-methyl-N-(5-trifluoromethyl-pyridin-2-yl)-propionamide], the agonistic activity result is “agonistic activity”.
The same measure, in the same setting: the result for `CC(C)C(C(=O)Nc1cc(C(C)(C)C)on1)S(=O)(=O)C(C)C` (centres unmarked) [N-(5-tert-Butyl-isoxazol-3-yl)-3-methyl-2-(propane-2-sulfonyl)-butyramide] reads “agonistic activity”.
For the compound `CC(C)S(=O)(=O)C(C)(C)C(=O)Nc1cc(C(C)(C)C)nn1C` [N-(5-tert-Butyl-2-methyl-2H-pyrazol-3-yl)-2-methyl-2-(propane-2-sulfonyl)-propionamide], the agonistic activity entry was “agonistic activity”.
Still for that read-out and setting: the value for `CC(C)(C(=O)Nc1nc(-c2ccccn2)cs1)S(=O)(=O)CC1CCOCC1` [2-Methyl-N-(4-pyridin-2-yl-thiazol-2-yl)-2-(tetrahydro-pyran-4-ylmethanesulfonyl)-propionamide] was “agonistic activity”; that for `CC(C)(C)c1cc(NC(=O)C(C)(C)S(=O)(=O)CC2CCOCC2)no1` [N-(5-tert-Butyl-isoxazol-3-yl)-2-methyl-2-(tetrahydro-pyran-4-ylmethanesulfonyl)-propionamide] was “agonistic activity”.
With `CC(C)(C)c1cc(NC(=O)C2(S(=O)(=O)C3CCCCC3)CCC2)no1` [1-Cyclohexanesulfonyl-cyclobutanecarboxylic acid (5-tert-butyl-isoxazol-3-yl)-amide], the midpoint of the response, the EC50, lay at 0.5 nM and the agonistic activity entry was “agonistic activity”.
With `CC(C)S(=O)(=O)C(C)(C)C(=O)Nc1nc(-c2ccncc2)cs1` [2-Methyl-2-(propane-2-sulfonyl)-N-(4-pyridin-4-yl-thiazol-2-yl)-propionamide], the agonistic activity result is reported as “agonistic activity”.
In the case of `CCC(C)S(=O)(=O)C(C)(C)C(=O)Nc1cc(C(C)(C)C)on1` (centres unmarked) [2-(Butane-2-sulfonyl)-N-(5-tert-butyl-isoxazol-3-yl)-2-methyl-propionamide], the agonistic activity result is “agonistic activity”. The EC50 (CHO cells expressing human CB2R, inhibition of forskolin-stimulated cAMP synthesis, compounds having agonist activity, read-out: CB2 EC50) turned out to be 18.7 nM.
As to `CC(C)(C(=O)Nc1cccc(C(F)(F)F)n1)S(=O)(=O)CC1CCOCC1` [2-Methyl-2-(tetrahydro-pyran-4-ylmethanesulfonyl)-N-(6-trifluoromethyl-pyridin-2-yl)-propionamide], the agonistic activity entry is “agonistic activity”.
For `Cn1nc(C(C)(C)C)cc1NC(=O)C(C)(C)S(=O)(=O)C1CCCC1` [N-(5-tert-Butyl-2-methyl-2H-pyrazol-3-yl)-2-cyclopentanesulfonyl-2-methyl-propionamide], the agonistic activity entry is “agonistic activity”.
The same measure, in the same setting: the value for `CC(C)(C)S(=O)(=O)C(C)(C)C(=O)Nc1cccc(C(F)(F)F)n1` [2-Methyl-2-(2-methyl-propane-2-sulfonyl)-N-(6-trifluoromethyl-pyridin-2-yl)-propionamide] was “agonistic activity”; that for `CCCS(=O)(=O)C(C)(C)C(=O)Nc1ccc2ccccc2n1` [2-Methyl-2-(propane-1-sulfonyl)-N-quinolin-2-yl-propionamide] was “agonistic activity”.
With `CC(C)(C)c1csc(NC(=O)C2(S(=O)(=O)C3CCCCC3)CCC2)n1` [1-Cyclohexanesulfonyl-cyclobutanecarboxylic acid (4-tert-butyl-thiazol-2-yl)-amide], the EC50 came to 11.7 nM and the agonistic activity result was “agonistic activity”.
As to `CCCS(=O)(=O)C(C)(C)C(=O)Nc1nc(C2CCCCC2)cs1` [N-(4-Cyclohexyl-thiazol-2-yl)-2-methyl-2-(propane-1-sulfonyl)-propionamide], a half-maximal effect (EC50) was put at 31.1 nM and the agonistic activity result was “agonistic activity”.
In the same order, the values of `CC(C)(C(=O)Nc1ccc(C(F)(F)F)cn1)S(=O)(=O)C1CCOCC1` [2-Methyl-2-(tetrahydro-pyran-4-sulfonyl)-N-(5-trifluoromethyl-pyridin-2-yl)-propionamide] are 62.4 nM and “agonistic activity”.
In the same order, the values of `CC(C)(C)c1cc(NC(=O)C(C)(C)S(=O)(=O)CC2CCCCO2)no1` (centres unmarked) [N-(5-tert-Butyl-isoxazol-3-yl)-2-methyl-2-(tetrahydro-pyran-2-ylmethanesulfonyl)-propionamide] are 0.2 nM and “agonistic activity”.
Regarding `CC(C)(C(=O)Nc1nnc(-c2ccccc2)[nH]1)S(=O)(=O)C1CCCC1` [2-Cyclopentanesulfonyl-2-methyl-N-(5-phenyl-4H-1,2,4-triazol-3-yl)-propionamide], the EC50 came to 3.8 nM and the agonistic activity entry was “agonistic activity”.
Taken in the same sequence, the figures for `CC(C)(C(=O)Nc1nsc(-c2ccccc2)n1)S(=O)(=O)CC1CCOCC1` [2-Methyl-N-(5-phenyl-[1,2,4]thiadiazol-3-yl)-2-(tetrahydro-pyran-4-ylmethanesulfonyl)-propionamide] were 17.6 nM and “agonistic activity”.
In the same order, the values of `CC(C)(C)c1csc(NC(=O)C(C)(C)S(=O)(=O)C(C)(C)C)n1` [N-(4-tert-Butyl-thiazol-2-yl)-2-methyl-2-(2-methyl-propane-2-sulfonyl)-propionamide] are 61.1 nM and “agonistic activity”.
As to `CC(C)(C(=O)Nc1ccc(C(F)(F)F)cn1)S(=O)(=O)CC1CCCCC1` [2-Cyclohexylmethanesulfonyl-2-methyl-N-(5-trifluoromethyl-pyridin-2-yl)-propionamide], the response was half-maximal at 15.4 nM (EC50) and the agonistic activity result was “agonistic activity”.
As for `CC(C)CS(=O)(=O)C(C)(C)C(=O)Nc1cc(C(C)(C)C)no1` [N-(3-tert-Butyl-isoxazol-5-yl)-2-methyl-2-(2-methyl-propane-1-sulfonyl)-propionamide], the midpoint of the response, the EC50, lay at 1.6 nM and the agonistic activity entry is given as “agonistic activity”.
In the same order, the values of `CC(C)(C)c1csc(NC(=O)C(C)(C)S(=O)(=O)C2CCCC2)n1` [N-(4-tert-Butyl-thiazol-2-yl)-2-cyclopentanesulfonyl-2-methyl-propionamide] are 19 nM and “agonistic activity”.
In the same order, the values of `Cc1nc(NC(=O)C(C)(C)S(=O)(=O)C2CCOCC2)sc1C(C)(C)C` [N-(5-tert-Butyl-4-methyl-thiazol-2-yl)-2-methyl-2-(tetrahydro-pyran-4-sulfonyl)-propionamide] are 0.3 nM and “agonistic activity”.
Consider `CC(C)CCS(=O)(=O)C(C)(C)C(=O)Nc1cc(C(C)(C)C)nn1C` [N-(5-tert-Butyl-2-methyl-2H-pyrazol-3-yl)-2-methyl-2-(3-methyl-butane-1-sulfonyl)-propionamide], for which it took 15.4 nM to reach a half-maximal effect (EC50) and the agonistic activity entry is “agonistic activity”.
Taken in the same sequence, the figures for `CCCS(=O)(=O)C(C)(C)C(=O)Nc1nc(-c2ccccc2)c(C)s1` [2-Methyl-N-(5-methyl-4-phenyl-thiazol-2-yl)-2-(propane-1-sulfonyl)-propionamide] were 52.2 nM and “agonistic activity”.

As a reminder, the EC50 is the concentration giving half of the maximal effect.
